Measured values taken from publication doi:10.1101/2023.12.04.569845, “Identification of 4-(6-((2-methoxyphenyl)amino)pyrazin-2-yl)benzoic acids as CSNK2A inhibitors with antiviral activity and improved selectivity over PIM3” (bioRxiv, 2023).
Like-named read-outs stand apart in the source and are kept apart here. One block for each compound: values may come before it.

What was measured:
Assay in all cases: biochemical
Parameters in all cases: Thermal shift (DSF, SYPRO Orange) Tm shift of recombinant kinase domains at 10 uM compound
AurA = target: T1, AurA (Homo sapiens, UniProt O14965)
T1 construct: gene AURKA
T1 sequence (O14965 1-403): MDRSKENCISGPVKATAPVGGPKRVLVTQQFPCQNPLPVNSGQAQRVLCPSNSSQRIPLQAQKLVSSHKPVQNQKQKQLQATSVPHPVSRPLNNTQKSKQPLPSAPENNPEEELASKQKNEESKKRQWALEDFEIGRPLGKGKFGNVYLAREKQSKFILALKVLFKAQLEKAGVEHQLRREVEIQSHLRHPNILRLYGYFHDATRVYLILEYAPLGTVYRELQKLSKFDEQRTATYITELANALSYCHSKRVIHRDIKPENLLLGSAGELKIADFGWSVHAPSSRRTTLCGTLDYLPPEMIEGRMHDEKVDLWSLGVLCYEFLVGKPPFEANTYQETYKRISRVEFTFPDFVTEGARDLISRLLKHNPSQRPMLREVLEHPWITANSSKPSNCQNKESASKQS

MAP3K5 = target: T2, MAP3K5 (Homo sapiens, UniProt Q99683)
T2 sequence (Q99683 1-1374): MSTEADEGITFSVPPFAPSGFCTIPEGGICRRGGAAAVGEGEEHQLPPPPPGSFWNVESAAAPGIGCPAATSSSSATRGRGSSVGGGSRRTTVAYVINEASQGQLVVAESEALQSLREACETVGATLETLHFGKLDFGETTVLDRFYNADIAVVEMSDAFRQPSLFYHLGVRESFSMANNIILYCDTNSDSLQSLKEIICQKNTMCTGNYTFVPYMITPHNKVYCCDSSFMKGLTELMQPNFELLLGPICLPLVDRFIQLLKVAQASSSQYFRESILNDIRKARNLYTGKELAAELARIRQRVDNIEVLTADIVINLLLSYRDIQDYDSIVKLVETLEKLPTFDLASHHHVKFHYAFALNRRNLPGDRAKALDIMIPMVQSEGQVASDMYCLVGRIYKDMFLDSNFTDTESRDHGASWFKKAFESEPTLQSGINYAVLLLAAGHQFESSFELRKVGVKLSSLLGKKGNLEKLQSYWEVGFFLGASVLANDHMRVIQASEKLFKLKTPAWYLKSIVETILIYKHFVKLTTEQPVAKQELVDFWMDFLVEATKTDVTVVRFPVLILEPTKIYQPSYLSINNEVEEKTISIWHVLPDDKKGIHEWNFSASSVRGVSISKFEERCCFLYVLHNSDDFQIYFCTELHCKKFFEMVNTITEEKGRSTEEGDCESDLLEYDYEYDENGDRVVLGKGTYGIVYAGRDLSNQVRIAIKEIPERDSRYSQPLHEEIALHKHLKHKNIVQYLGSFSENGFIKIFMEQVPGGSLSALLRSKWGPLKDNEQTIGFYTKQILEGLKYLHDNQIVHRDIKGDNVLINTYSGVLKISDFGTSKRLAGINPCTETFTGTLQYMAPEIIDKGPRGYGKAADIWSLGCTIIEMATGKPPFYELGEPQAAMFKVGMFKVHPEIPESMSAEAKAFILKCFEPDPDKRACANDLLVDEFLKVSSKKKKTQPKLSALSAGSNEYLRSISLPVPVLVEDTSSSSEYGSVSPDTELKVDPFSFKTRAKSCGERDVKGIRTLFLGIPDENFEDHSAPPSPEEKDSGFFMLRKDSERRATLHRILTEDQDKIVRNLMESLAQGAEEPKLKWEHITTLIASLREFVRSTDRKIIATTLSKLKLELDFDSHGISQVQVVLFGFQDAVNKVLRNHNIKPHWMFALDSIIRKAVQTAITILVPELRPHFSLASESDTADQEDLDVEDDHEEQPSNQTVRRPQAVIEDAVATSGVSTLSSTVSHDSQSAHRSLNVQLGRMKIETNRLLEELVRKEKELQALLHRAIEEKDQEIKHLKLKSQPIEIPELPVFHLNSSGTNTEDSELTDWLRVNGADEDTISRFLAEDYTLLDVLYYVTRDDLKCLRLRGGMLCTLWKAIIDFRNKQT

RSK1_b = target: T3, RSK1_b (Homo sapiens, UniProt Q15418)
T3 construct: gene RPS6KA1; second (C-terminal) kinase domain
T3 sequence (Q15418 whole entry, the tested form may be a part): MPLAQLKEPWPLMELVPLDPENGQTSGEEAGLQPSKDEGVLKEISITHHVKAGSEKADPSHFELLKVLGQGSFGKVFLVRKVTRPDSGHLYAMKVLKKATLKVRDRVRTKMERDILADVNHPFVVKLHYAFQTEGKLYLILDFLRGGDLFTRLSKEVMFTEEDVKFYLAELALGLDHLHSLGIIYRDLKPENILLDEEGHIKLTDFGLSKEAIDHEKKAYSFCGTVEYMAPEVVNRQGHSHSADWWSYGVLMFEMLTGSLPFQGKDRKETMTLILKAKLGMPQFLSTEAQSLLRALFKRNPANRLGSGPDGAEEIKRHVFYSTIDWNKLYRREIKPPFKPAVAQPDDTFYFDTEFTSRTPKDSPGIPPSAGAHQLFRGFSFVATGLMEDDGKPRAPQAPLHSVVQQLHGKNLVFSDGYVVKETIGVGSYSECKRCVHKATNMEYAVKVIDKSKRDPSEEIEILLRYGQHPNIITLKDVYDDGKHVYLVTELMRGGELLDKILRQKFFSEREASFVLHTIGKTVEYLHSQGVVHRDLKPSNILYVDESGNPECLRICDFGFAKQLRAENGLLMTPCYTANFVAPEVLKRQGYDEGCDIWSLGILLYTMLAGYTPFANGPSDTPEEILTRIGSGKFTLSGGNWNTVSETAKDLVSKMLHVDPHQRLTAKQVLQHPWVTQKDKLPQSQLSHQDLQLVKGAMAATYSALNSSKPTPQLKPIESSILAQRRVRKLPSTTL

ΔTm at 10 µM (AurA; read-out: 7c): 4 °C
ΔTm at 10 µM (MAP3K5; read-out: 7c): 1 °C
ΔTm at 10 µM (RSK1_b; read-out: 7c): 1 °C
SMILES: COc1ccc(OC(C)C)cc1Nc1cncc(-c2ccc(C(=O)O)cc2)n1 [7c]

ΔTm at 10 µM (AurA; read-out: 6c): 8 °C
ΔTm at 10 µM (MAP3K5; read-out: 6c): 3 °C
ΔTm at 10 µM (RSK1_b; read-out: 6c): 2 °C
SMILES: CC(C)Oc1ccc2ccn(-c3cncc(-c4ccc(C(=O)O)cc4)n3)c2c1 [6c]

ΔTm at 10 µM (AurA; read-out: 2): 10 °C
ΔTm at 10 µM (MAP3K5; read-out: 2): 5 °C
ΔTm at 10 µM (RSK1_b; read-out: 2): 4 °C
SMILES: CC(C)Nc1ccc2cnn(-c3cncc(-c4ccc(C(=O)O)cc4)n3)c2c1 [compound 2, 2]
